Source: patent US6737383B1, “Herbicidal oxadiazolidines” (priority 1999, dated 2004)

Assays:
corn = assay: Test B pre/postemergence corn; type: in vivo, Zea mays
In short: (§1)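 Test chemicals in a non-phytotoxic solvent mixture with surfactant were sprayed preemergence onto planted seeds and postemergence onto plants 2 to 18 cm tall (1- to 4-leaf stage). After twelve to sixteen days in a greenhouse, injury was visually rated against untreated controls from 0 (no effect) to 10 (complete control).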

giant foxtail = assay: Test B pre/postemergence giant foxtail; type: in vivo, Setaria faberii
In short: as §1

wheat = assay: Test B pre/postemergence wheat; type: in vivo, Triticum aestivum
In short: as §1

sugar beet = assay: Test B pre/postemergence sugar beet; type: in vivo, Beta vulgaris
In short: as §1

duck salad = assay: Test B flood test duck salad; type: in vivo, Heteranthera limosa
In short: (§2)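 Each value is a visual injury score relative to controls, with 10 meaning complete control and 0 no effect. Evaluation took place twelve to sixteen days after the 2-leaf-stage plants were treated and kept in the greenhouse.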

pigweed = assay: Test B pre/postemergence pigweed; type: in vivo, Amaranthus retroflexus
In short: as §1

crabgrass = assay: Test B pre/postemergence crabgrass; type: in vivo, Digitaria sanguinalis
In short: as §1

rice = assay: Test B flood test rice; type: in vivo, Oryza sativa
In short: as §2

cocklebur = assay: Test B pre/postemergence cocklebur; type: in vivo, Xanthium strumarium
In short: as §1

purple nutsedge = assay: Test B pre/postemergence purple nutsedge; type: in vivo, Cyperus rotundus
In short: as §1

soybean = assay: Test B pre/postemergence soybean; type: in vivo, Glycine max
In short: as §1

blackgrass = assay: Test B pre/postemergence blackgrass; type: in vivo, Alopecurus myosuroides
In short: as §1

rape = assay: Test B pre/postemergence rape; type: in vivo, Brassica napus
In short: as §1

velvetleaf = assay: Test B pre/postemergence velvetleaf; type: in vivo, Abutilon theophrasti
In short: as §1

morningglory = assay: Test B pre/postemergence morningglory; type: in vivo, Ipomoea hederacea
In short: as §1

smallflower flatsedge = assay: Test B flood test smallflower flatsedge; type: in vivo, Cyperus difformis
In short: as §2

[1] = Preemergence, Rate 62 g/ha, scale of 0 to 10 where 0 is no effect and 10 is complete control
[2] = Preemergence, Rate 250 g/ha, scale of 0 to 10 where 0 is no effect and 10 is complete control
[3] = Preemergence, Rate 500 g/ha, scale of 0 to 10 where 0 is no effect and 10 is complete control
[4] = Rate 62 g/ha, Postemergence, scale of 0 to 10 where 0 is no effect and 10 is complete control
[5] = Rate 125 g/ha, Postemergence, scale 0 to 10
[6] = Rate 125 g/ha, Preemergence, scale of 0 to 10 where 0 is no effect and 10 is complete control
[7] = Rate 500 g/ha, Postemergence, scale 0 to 10, 0 no effect, 10 complete control
[8] = Rate 62 g/ha, headed Pre-emergence (flood test species), scale 0 to 10 (0 no effect, 10 complete control)
[9] = Rate 125 g/ha, Pre-emergence, flood test species, scale 0 to 10 where 0 is no effect and 10 is complete control
[10] = Rate 250 g/ha, Pre-emergence, flood-test species, scale 0 to 10, 0 is no effect, 10 is complete control
[11] = Rate 500 g/ha, Pre-emergence, flood test species, scale 0 to 10 (0 no effect, 10 complete control)

Q: What does the source list for `CC(C)N(C(=O)n1oc(=O)n(-c2cccnc2)c1=O)c1ccc(F)cc1` [Compound 234]?
A: Corn plant response rating (corn; [1]): 0; Corn plant response rating (corn; [2]): 0; Plant response rating, Corn (corn; [3]): 0; Corn plant response rating (corn; [4]): 0; Corn plant response rating (corn; [5]): 0; Corn plant response rating (corn; [6]): 0; Plant response rating (0 to 10; 0 is no effect, 10 is complete control), Corn (corn; Rate 250 g/ha, Postemergence): 0; Corn plant response rating (corn; [7]): 0; Giant foxtail plant response rating (giant foxtail; [1]): 0; Giant foxtail plant response rating (giant foxtail; [2]): 0; Plant response rating, Giant foxtail (giant foxtail; [3]): 0; Giant foxtail plant response rating (giant foxtail; [4]): 0; Giant foxtail plant response rating (giant foxtail; [5]): 0; Giant foxtail plant response rating (giant foxtail; [6]): 0; Plant response rating (0 to 10; 0 is no effect, 10 is complete control), Giant foxtail (giant foxtail; Rate 250 g/ha, Postemergence): 0; Giant foxtail plant response rating (giant foxtail; [7]): 0; Wheat plant response rating (wheat; [1]): 0; Wheat plant response rating (wheat; [2]): 0; Plant response rating, Wheat (wheat; [3]): 0; Wheat plant response rating (wheat; [4]): 0; Wheat plant response rating (wheat; [5]): 0; Wheat plant response rating (wheat; [6]): 0; Plant response rating (0 to 10; 0 is no effect, 10 is complete control), Wheat (wheat; Rate 250 g/ha, Postemergence): 0; Wheat plant response rating (wheat; [7]): 0; Sugarbeets plant response rating (sugar beet; [1]): 0; Sugarbeets plant response rating (sugar beet; [2]): 0; Plant response rating, Sugarbeets (sugar beet; [3]): 0; Sugarbeets plant response rating (sugar beet; [4]): 0; Sugarbeets plant response rating (sugar beet; [5]): 0; Sugarbeets plant response rating (sugar beet; [6]): 0; Plant response rating (0 to 10; 0 is no effect, 10 is complete control), Sugarbeets (sugar beet; Rate 250 g/ha, Postemergence): 0; Sugarbeets plant response rating (sugar beet; [7]): 0; Ducksalad plant response rating (duck salad; [8]): 0; Ducksalad plant response rating (duck salad; [9]): 0; Ducksalad plant response rating (duck salad; [10]): 0; Ducksalad plant response rating (duck salad; [11]): 0; Redroot pigweed plant response rating (pigweed; [1]): 0; Redroot pigweed plant response rating (pigweed; [2]): 0; Plant response rating, Redroot pigweed (pigweed; [3]): 0; Redroot pigweed plant response rating (pigweed; [4]): 0; Redroot pigweed plant response rating (pigweed; [5]): 0; Redroot pigweed plant response rating (pigweed; [6]): 0; Plant response rating (0 to 10; 0 is no effect, 10 is complete control), Redroot pigweed (pigweed; Rate 250 g/ha, Postemergence): 0; Redroot pigweed plant response rating (pigweed; [7]): 0; Crabgrass plant response rating (crabgrass; [1]): 0; Crabgrass plant response rating (crabgrass; [2]): 0; Plant response rating, Crabgrass (crabgrass; [3]): 0; Crabgrass plant response rating (crabgrass; [4]): 0; Crabgrass plant response rating (crabgrass; [5]): 0; Crabgrass plant response rating (crabgrass; [6]): 0; Plant response rating (0 to 10; 0 is no effect, 10 is complete control), Crabgrass (crabgrass; Rate 250 g/ha, Postemergence): 0; Crabgrass plant response rating (crabgrass; [7]): 0; Rice plant response rating (rice; [8]): 0; Rice plant response rating (rice; [9]): 0; Rice plant response rating (rice; [10]): 0; Rice plant response rating (rice; [11]): 0; Cocklebur plant response rating (cocklebur; [1]): 0; Cocklebur plant response rating (cocklebur; [2]): 0; Plant response rating, Cocklebur (cocklebur; [3]): 0; Cocklebur plant response rating (cocklebur; [4]): 0; Cocklebur plant response rating (cocklebur; [5]): 0; Cocklebur plant response rating (cocklebur; [6]): 0; Plant response rating (0 to 10; 0 is no effect, 10 is complete control), Cocklebur (cocklebur; Rate 250 g/ha, Postemergence): 0; Cocklebur plant response rating (cocklebur; [7]): 3; Plant response rating, Nutsedge (purple nutsedge; [3]): 0; Nutsedge plant response rating (purple nutsedge; [4]): 0; Nutsedge plant response rating (purple nutsedge; [5]): 0; Plant response rating (0 to 10; 0 is no effect, 10 is complete control), Nutsedge (purple nutsedge; Rate 250 g/ha, Postemergence): 0; Nutsedge plant response rating (purple nutsedge; [7]): 0; Soybean plant response rating (soybean; [1]): 0; Soybean plant response rating (soybean; [2]): 0; Plant response rating, Soybean (soybean; [3]): 0; Soybean plant response rating (soybean; [4]): 0; Soybean plant response rating (soybean; [5]): 0; Soybean plant response rating (soybean; [6]): 0; Plant response rating (0 to 10; 0 is no effect, 10 is complete control), Soybean (soybean; Rate 250 g/ha, Postemergence): 0; Soybean plant response rating (soybean; [7]): 1; Blackgrass plant response rating (blackgrass; [1]): 0; Blackgrass plant response rating (blackgrass; [2]): 0; Plant response rating, Blackgrass (blackgrass; [3]): 0; Blackgrass plant response rating (blackgrass; [4]): 0; Blackgrass plant response rating (blackgrass; [5]): 0; Blackgrass plant response rating (blackgrass; [6]): 0; Plant response rating (0 to 10; 0 is no effect, 10 is complete control), Blackgrass (blackgrass; Rate 250 g/ha, Postemergence): 0; Blackgrass plant response rating (blackgrass; [7]): 0; Rape plant response rating (rape; [1]): 0; Rape plant response rating (rape; [2]): 0; Plant response rating, Rape (rape; [3]): 0; Rape plant response rating (rape; [4]): 0; Rape plant response rating (rape; [5]): 0; Rape plant response rating (rape; [6]): 0; Plant response rating (0 to 10; 0 is no effect, 10 is complete control), Rape (rape; Rate 250 g/ha, Postemergence): 0; Rape plant response rating (rape; [7]): 0; Velvetleaf plant response rating (velvetleaf; [1]): 0; Velvetleaf plant response rating (velvetleaf; [2]): 0; Plant response rating, Velvetleaf (velvetleaf; [3]): 0; Velvetleaf plant response rating (velvetleaf; [4]): 0; Velvetleaf plant response rating (velvetleaf; [5]): 0; Velvetleaf plant response rating (velvetleaf; [6]): 0; Plant response rating (0 to 10; 0 is no effect, 10 is complete control), Velvetleaf (velvetleaf; Rate 250 g/ha, Postemergence): 0; Velvetleaf plant response rating (velvetleaf; [7]): 0; Morningglory plant response rating (morningglory; [1]): 0; Morningglory plant response rating (morningglory; [2]): 0; Plant response rating, Morningglory (morningglory; [3]): 0; Morningglory plant response rating (morningglory; [4]): 0; Morningglory plant response rating (morningglory; [5]): 0; Morningglory plant response rating (morningglory; [6]): 0; Plant response rating (0 to 10; 0 is no effect, 10 is complete control), Morningglory (morningglory; Rate 250 g/ha, Postemergence): 1; Morningglory plant response rating (morningglory; [7]): 2; S. Flatsedge plant response rating (smallflower flatsedge; [8]): 0; S. Flatsedge plant response rating (smallflower flatsedge; [9]): 0; S. Flatsedge plant response rating (smallflower flatsedge; [10]): 0; S. Flatsedge plant response rating (smallflower flatsedge; [11]): 0
